Experimental data from patent US10640506B2, “Cyclobutyl substituted pyrrolopyridine and pyrrolopyrimidines derivatives as JAK inhibitors” (Incyte Corporation, priority 2010, dated 2020).

Columns and labels:
[1] = biological target: human JAK1 (a.a. 837-1142) (Homo sapiens, UniProt P23458); assay: In vitro JAK kinase assay (HTRF, phosphorylation of biotinylated peptide), JAK1; format: biochemical; conditions: Table F; 1 mM ATP
Summary of the method: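 His-tagged human JAK1 catalytic domain (a.a. 837-1142), baculovirus/insect-cell expressed, phosphorylates a biotinylated peptide for 1 h at room temperature. Reaction stopped with EDTA; product detected by HTRF (SA-APC, Eu-Py20, 40 min binding). IC50 reported as ranges.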

JAK2 (a.a. 828-1132) = biological target: T1, JAK2 (a.a. 828-1132) (Homo sapiens, UniProt O60674); assay: In vitro JAK kinase assay (HTRF, phosphorylation of biotinylated peptide), JAK2; format: biochemical; conditions: Table F; 1 mM ATP
T1 construct: JAK2 (a.a. 828-1132); His tag (N)
Summary of the method: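 His-tagged catalytic domains of human JAK1 (a.a. 837-1142) and JAK2 (a.a. 828-1132), baculovirus-expressed, phosphorylate a biotinylated peptide for 1 hour at room temperature. Stopped with EDTA; detected by HTRF using SA-APC and Eu-Py20 antibody after 40 min binding; values binned as ranges.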

T1 sequence (O60674 828-1132): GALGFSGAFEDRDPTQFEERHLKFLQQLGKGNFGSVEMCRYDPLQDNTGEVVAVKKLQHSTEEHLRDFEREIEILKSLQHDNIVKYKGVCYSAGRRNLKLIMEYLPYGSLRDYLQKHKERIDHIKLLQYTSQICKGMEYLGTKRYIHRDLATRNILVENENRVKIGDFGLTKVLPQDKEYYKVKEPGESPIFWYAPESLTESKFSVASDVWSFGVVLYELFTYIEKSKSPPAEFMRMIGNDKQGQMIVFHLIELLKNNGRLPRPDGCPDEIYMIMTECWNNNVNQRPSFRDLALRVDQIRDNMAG
Chain of human JAK1 (a.a. 837-1142) (P23458 849-1154): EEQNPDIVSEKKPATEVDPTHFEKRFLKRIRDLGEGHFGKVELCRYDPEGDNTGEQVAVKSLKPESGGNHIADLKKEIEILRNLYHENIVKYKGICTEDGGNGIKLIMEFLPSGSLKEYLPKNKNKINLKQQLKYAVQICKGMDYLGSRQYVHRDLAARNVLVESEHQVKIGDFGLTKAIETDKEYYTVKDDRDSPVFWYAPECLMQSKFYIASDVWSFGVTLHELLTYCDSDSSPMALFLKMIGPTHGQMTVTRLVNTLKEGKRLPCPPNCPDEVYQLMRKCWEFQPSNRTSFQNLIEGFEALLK

Row | IC50 [1] [nM] | IC50 (JAK2 (a.a. 828-1132)) [nM] | Compound
1 | 10 to 25 | > 100 | CN(C)Cc1cc(C#N)cc(CN2CCN([C@H]3C[C@@](CC#N)(n4cc(-c5ncnc6[nH]ccc56)cn4)C3)CC2)c1 [Example 44, 3-[(4-{cis-3-(cyanomethyl)-3-[4-(7H-pyrrolo[2,3-d]pyrimidin-4-yl)-1H-pyrazol-1-yl]cyclobutyl}piperazin-1-yl)methyl]-5-[(dimethylamino)methyl]benzonitrile]
2 | > 100 | > 100 | CN(C)Cc1cc(CN2CCN([C@H]3C[C@](CC#N)(n4cc(-c5ncnc6[nH]ccc56)cn4)C3)CC2)cc(C(F)(F)F)c1 [Example 45, {trans-3-{4-[3-[(dimethylamino)methyl]-5-(trifluoromethyl)benzyl]piperazin-1-yl}-1-[4-(7H-pyrrolo[2,3-d]pyrimidin-4-yl)-1H-pyrazol-1-yl]cyclobutyl}acetonitrile]
3 | 25 to 100 | > 100 | CN(C)Cc1cc(CN2CCN([C@H]3C[C@@](CC#N)(n4cc(-c5ncnc6[nH]ccc56)cn4)C3)CC2)cc(C(F)(F)F)c1 [Example 46, {cis-3-{4-[3-[(dimethylamino)methyl]-5-(trifluoromethyl)benzyl]piperazin-1-yl}-1-[4-(7H-pyrrolo[2,3-d]pyrimidin-4-yl)-1H-pyrazol-1-yl]cyclobutyl}acetonitrile]
4 | < 10 | 25 to 100 | CCNCc1cc(C(=O)N2CCN([C@H]3C[C@](CC#N)(n4cc(-c5ncnc6[nH]ccc56)cn4)C3)CC2)nc(C(F)(F)F)n1 [Example 47, {trans-3-(4-{[6-[(Ethylamino)methyl]-2-(trifluoromethyl)pyrimidin-4-yl]carbonyl}piperazin-1-yl)-1-[4-(7H-pyrrolo[2,3-d]pyrimidin-4-yl)-1H-pyrazol-1-yl]cyclobutyl}acetonitrile]
5 | 10 to 25 | > 100 | N#CC[C@]1(n2cc(-c3ncnc4[nH]ccc34)cn2)C[C@H](N2CCN(C(=O)c3cc(C(=O)O)nc(C(F)(F)F)n3)CC2)C1 [Example 48, 6-[(4-{trans-3-(cyanomethyl)-3-[4-(7H-pyrrolo[2,3-d]pyrimidin-4-yl)-1H-pyrazol-1-yl]cyclobutyl}piperazin-1-yl)carbonyl]-2-(trifluoromethyl)pyrimidine-4-carboxylic acid]
6 | < 10 | 25 to 100 | N#CC[C@]1(n2cc(-c3ncnc4[nH]ccc34)cn2)C[C@H](N2CCN(C(=O)c3cc(CN4CCC4)nc(C(F)(F)F)n3)CC2)C1 [Example 49, {trans-3-(4-{[6-(azetidin-1-ylmethyl)-2-(trifluoromethyl)pyrimidin-4-yl]carbonyl}piperazin-1-yl)-1-[4-(7H-pyrrolo[2,3-d]pyrimidin-4-yl)-1H-pyrazol-1-yl]cyclobutyl}acetonitrile]
7 | < 10 | 25 to 100 | CNCc1cc(C(=O)N2CCN([C@H]3C[C@](CC#N)(n4cc(-c5ncnc6[nH]ccc56)cn4)C3)CC2)nc(C(F)(F)F)n1 [Example 50, {trans-3-(4-{[6-[(methylamino)methyl]-2-(trifluoromethyl)pyrimidin-4-yl]carbonyl}piperazin-1-yl)-1-[4-(7H-pyrrolo[2,3-d]pyrimidin-4-yl)-1H-pyrazol-1-yl]cyclobutyl}acetonitrile]
8 | < 10 | 25 to 100 | N#CC[C@]1(n2cc(-c3ncnc4[nH]ccc34)cn2)C[C@H](N2CCN(C(=O)c3cc(CO)nc(C(F)(F)F)n3)CC2)C1 [Example 51, {trans-3-(4-{[6-(hydroxymethyl)-2-(trifluoromethyl)pyrimidin-4-yl]carbonyl}piperazin-1-yl)-1-[4-(7H-pyrrolo[2,3-d]pyrimidin-4-yl)-1H-pyrazol-1-yl]cyclobutyl}acetonitrile]
9 | < 10 | 25 to 100 | CN(C)Cc1cc(C(=O)N2CCN([C@H]3C[C@](CC#N)(n4cc(-c5ncnc6[nH]ccc56)cn4)C3)CC2)nc(C(F)(F)F)n1 [Example 52, {trans-3-(4-{[6-[(dimethylamino)methyl]-2-(trifluoromethyl)pyrimidin-4-yl]carbonyl}piperazin-1-yl)-1-[4-(7H-pyrrolo[2,3-d]pyrimidin-4-yl)-1H-pyrazol-1-yl]cyclobutyl}acetonitrile]
10 | < 10 | 25 to 100 | N#CC[C@]1(n2cc(-c3ncnc4[nH]ccc34)cn2)C[C@H](N2CCN(C(=O)c3cc(CN4CCCC4)nc(C(F)(F)F)n3)CC2)C1 [Example 53, {trans-3-(4-{[6-(pyrrolidin-1-ylmethyl)-2-(trifluoromethyl)pyrimidin-4-yl]carbonyl}piperazin-1-yl)-1-[4-(7H-pyrrolo[2,3-d]pyrimidin-4-yl)-1H-pyrazol-1-yl]cyclobutyl}acetonitrile]
11 | < 10 | 25 to 100 | N#CC[C@]1(n2cc(-c3ncnc4[nH]ccc34)cn2)C[C@H](N2CCN(C(=O)c3cc(CN)nc(C(F)(F)F)n3)CC2)C1 [Example 54, {trans-3-(4-{[6-(aminomethyl)-2-(trifluoromethyl)pyrimidin-4-yl]carbonyl}piperazin-1-yl)-1-[4-(7H-pyrrolo[2,3-d]pyrimidin-4-yl)-1H-pyrazol-1-yl]cyclobutyl}acetonitrile]
12 | < 10 | 25 to 100 | CC(C)NCc1cc(C(=O)N2CCN([C@H]3C[C@](CC#N)(n4cc(-c5ncnc6[nH]ccc56)cn4)C3)CC2)nc(C(F)(F)F)n1 [Example 55, {trans-3-(4-{[6-[(isopropylamino)methyl]-2-(trifluoromethyl)pyrimidin-4-yl]carbonyl}piperazin-1-yl)-1-[4-(7H-pyrrolo[2,3-d]pyrimidin-4-yl)-1H-pyrazol-1-yl]cyclobutyl}acetonitrile]
13 | < 10 | 25 to 100 | N#CC[C@]1(n2cc(-c3ncnc4[nH]ccc34)cn2)C[C@H](N2CCN(C(=O)c3cc(CNC4CCC4)nc(C(F)(F)F)n3)CC2)C1 [Example 56, {trans-3-(4-{[6-[(cyclobutylamino)methyl]-2-(trifluoromethyl)pyrimidin-4-yl]carbonyl}piperazin-1-yl)-1-[4-(7H-pyrrolo[2,3-d]pyrimidin-4-yl)-1H-pyrazol-1-yl]cyclobutyl}acetonitrile]
14 | < 10 | 10 to 25 | CC(C)(C)NCc1cc(C(=O)N2CCN([C@H]3C[C@](CC#N)(n4cc(-c5ncnc6[nH]ccc56)cn4)C3)CC2)nc(C(F)(F)F)n1 [Example 57, {trans-3-(4-{[6-[(tert-butylamino)methyl]-2-(trifluoromethyl)pyrimidin-4-yl]carbonyl}piperazin-1-yl)-1-[4-(7H-pyrrolo[2,3-d]pyrimidin-4-yl)-1H-pyrazol-1-yl]cyclobutyl}acetonitrile]
15 | < 10 | 10 to 25 | CC(C)(O)c1cc(C(=O)N2CCN([C@H]3C[C@](CC#N)(n4cc(-c5ncnc6[nH]ccc56)cn4)C3)CC2)nc(C(F)(F)F)n1 [Example 58, {trans-3-(4-{[6-(1-hydroxy-1-methylethyl)-2-(trifluoromethyl)pyrimidin-4-yl]carbonyl}piperazin-1-yl)-1-[4-(7H-pyrrolo[2,3-d]pyrimidin-4-yl)-1H-pyrazol-1-yl]cyclobutyl}acetonitrile]
16 | < 10 | 25 to 100 | CC(C)(O)c1cc(C(=O)N2CCN([C@H]3C[C@@](CC#N)(n4cc(-c5ncnc6[nH]ccc56)cn4)C3)CC2)nc(C(F)(F)F)n1 [Example 59, {cis-3-(4-{[6-(1-hydroxy-1-methylethyl)-2-(trifluoromethyl)pyrimidin-4-yl]carbonyl}piperazin-1-yl)-1-[4-(7H-pyrrolo[2,3-d]pyrimidin-4-yl)-1H-pyrazol-1-yl]cyclobutyl}acetonitrile]
